In ChEMBL document CHEMBL1201862, “PubChem BioAssay data set” (2004):
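Interpolation was linear, between the two tested concentrations surrounding the appropriate level; five concentrations were tested over 48 hours in 96-well plates. Here, GI50 denotes the concentration required for 50% inhibition of growth.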 Active and inactive are the calls of the source. No stated cut-off is given here; in the data, active = GI50 up to about 1.1 µM and inactive = higher.

Columns and labels:
Test in all cases: DTP human tumour cell line panel, 48 h
[1] = test system: MDA-N
[2] = test system: MDA-MB-435
[3] = test system: SR
[4] = test system: LOX IMVI
[5] = test system: BT-549
[6] = test system: OVCAR-4
[7] = test system: KM12
[8] = test system: OVCAR-5
[9] = test system: SNB-19
[10] = test system: UACC-257
[11] = test system: T47D
[12] = test system: ACHN
[13] = test system: SK-OV-3
[14] = test system: HCC 2998
[15] = test system: SK-MEL-2
[16] = test system: HOP-62
[17] = test system: TK-10
[18] = test system: DU-145
[19] = test system: OVCAR-3
[20] = test system: CCRF-CEM

| Compound | GI50 [1] | GI50 [2] | GI50 [3] | GI50 [4] | GI50 [5] | GI50 [6] | GI50 [7] | GI50 [8] | GI50 [9] | GI50 [10] | GI50 [11] | GI50 [12] | GI50 [13] | GI50 [14] | GI50 [15] | GI50 [16] | GI50 [17] | GI50 [18] | GI50 [19] | GI50 [20] |
| --- | --- | --- | --- | --- | --- | --- | --- | --- | --- | --- | --- | --- | --- | --- | --- | --- | --- | --- | --- | --- |
| COCN1C(=O)[C@@H]2CCCN2C(=O)c2cc(Cl)ccc21 | > 100 µM (inactive) | > 100 µM (inactive) | > 100 µM (inactive) | > 100 µM (inactive) | > 100 µM (inactive) | > 100 µM (inactive) | > 100 µM (inactive) | > 100 µM (inactive) | > 100 µM (inactive) | > 100 µM (inactive) | > 100 µM (inactive) | > 100 µM (inactive) | > 100 µM (inactive) | > 100 µM (inactive) | > 100 µM (inactive) | > 100 µM (inactive) | > 100 µM (inactive) | > 100 µM (inactive) |  |  |
| CC(C)(C)OC(=O)NC(Cc1ccccc1)OCc1ccccc1 (stereo not drawn) | 19.3 µM (inactive) | 19.4 µM (inactive) | 30.7 µM (inactive) |  | 23.3 µM (inactive) |  | 19.5 µM (inactive) | 24 µM (inactive) | 19.5 µM (inactive) | > 10 µM (inactive) | 14.6 µM (inactive) | 19.4 µM (inactive) | 17.6 µM (inactive) | 23.9 µM (inactive) | 29.4 µM (inactive) | 18.9 µM (inactive) | 19 µM (inactive) | 20.1 µM (inactive) | 23.2 µM (inactive) |  |
| COc1ccc(C2c3c[nH]nc3CC3CCCCC32)cc1 (stereo not drawn) | 14.4 µM (inactive) | 19.4 µM (inactive) | 20.9 µM (inactive) | 17.9 µM (inactive) | 16.6 µM (inactive) | 16.7 µM (inactive) |  | 20.5 µM (inactive) | 18.2 µM (inactive) | 22.4 µM (inactive) | 3.99 µM (inactive) | 19 µM (inactive) |  | 20.3 µM (inactive) | 17.9 µM (inactive) | 21.3 µM (inactive) | 19.7 µM (inactive) | 13.4 µM (inactive) | 15.5 µM (inactive) | 21.9 µM (inactive) |
| CN(C)CCN(/C(=N/c1ccccc1)N1CCCC1)c1ccccc1 | 4.1 µM (inactive) | 15.5 µM (inactive) | 31.8 µM (inactive) | 4.06 µM (inactive) | > 100 µM (inactive) | 49.5 µM (inactive) | 20 µM (inactive) | > 100 µM (inactive) | > 100 µM (inactive) | 55.1 µM (inactive) | > 100 µM (inactive) | > 100 µM (inactive) | > 100 µM (inactive) |  | > 100 µM (inactive) | 23.4 µM (inactive) | > 100 µM (inactive) | > 100 µM (inactive) | 37.3 µM (inactive) | 8.69 µM (inactive) |
| Cc1ccc(S(=O)(=O)N2CCC(=O)c3cc(Br)ccc32)cc1 | 3.01 µM (inactive) | 1.79 µM (inactive) | 3.96 µM (inactive) | 6.52 µM (inactive) | 13.9 µM (inactive) | 16.8 µM (inactive) | 3.24 µM (inactive) | 42.4 µM (inactive) | 18.4 µM (inactive) | 6.95 µM (inactive) | 23.1 µM (inactive) | 16.8 µM (inactive) | 20.5 µM (inactive) | 24 µM (inactive) | 10.3 µM (inactive) | 7.16 µM (inactive) | 10.7 µM (inactive) | 8.67 µM (inactive) | 9.93 µM (inactive) |  |
| CC(C)(C)OC(=O)NCC(c1c[nH]c2ccccc12)c1c[nH]c2ccccc12 | 17.5 µM (inactive) | 15.7 µM (inactive) | 14.9 µM (inactive) | 17.9 µM (inactive) | 18.9 µM (inactive) | 12.9 µM (inactive) | 13.3 µM (inactive) | 16.9 µM (inactive) | 16.9 µM (inactive) | 15.1 µM (inactive) | 17 µM (inactive) | > 100 µM (inactive) | 16.8 µM (inactive) |  | 18.4 µM (inactive) | 16.9 µM (inactive) | 15.5 µM (inactive) | 15.6 µM (inactive) | 15.3 µM (inactive) | 14.6 µM (inactive) |
| O=c1[nH]c2ccc(C(F)(F)F)cc2nc1-c1ccccc1 | > 100 µM (inactive) | > 100 µM (inactive) | 88.3 µM (inactive) | > 100 µM (inactive) | > 100 µM (inactive) |  |  | > 100 µM (inactive) | > 100 µM (inactive) | > 100 µM (inactive) | > 100 µM (inactive) | > 100 µM (inactive) |  | > 100 µM (inactive) |  | > 100 µM (inactive) | > 100 µM (inactive) | > 100 µM (inactive) | > 100 µM (inactive) | > 100 µM (inactive) |
| CCNc1nc2c(ncn2C2CC(O)C(COP(=O)(O)O)O2)c(=O)[nH]1 (stereo not drawn) | > 100 µM (inactive) | > 100 µM (inactive) | 86.3 µM (inactive) | > 100 µM (inactive) | > 100 µM (inactive) | > 100 µM (inactive) | > 100 µM (inactive) | > 100 µM (inactive) | > 100 µM (inactive) | > 100 µM (inactive) | > 100 µM (inactive) | > 100 µM (inactive) | > 100 µM (inactive) | > 100 µM (inactive) | > 100 µM (inactive) | > 100 µM (inactive) | > 100 µM (inactive) | > 100 µM (inactive) | > 100 µM (inactive) |  |
| O=C1/C(=C/c2ccc(Cl)cc2)CNC/C1=C\c1ccc(Cl)cc1 | 2.71 µM (inactive) | 2.82 µM (inactive) | 0.495 µM (active) | 1.57 µM (inactive) | 1.18 µM (inactive) |  | 1.22 µM (inactive) | 4.79 µM (inactive) | 1.82 µM (inactive) |  | 5 µM (inactive) | 3.28 µM (inactive) | 12.1 µM (inactive) | 1.57 µM (inactive) |  | 2.43 µM (inactive) | 3.95 µM (inactive) | 2.65 µM (inactive) | 2.01 µM (inactive) |  |
| COc1cc2c(cc1OC)-c1cc3ccc(OC)c(OC)c3c[n+]1CC2 [PALMATINE CHLORIDE] | > 100 µM (inactive) | > 100 µM (inactive) | > 100 µM (inactive) |  | > 100 µM (inactive) | > 100 µM (inactive) | > 100 µM (inactive) | > 100 µM (inactive) | 15.5 µM (inactive) | 48.5 µM (inactive) | 83.4 µM (inactive) | > 100 µM (inactive) | > 100 µM (inactive) | > 100 µM (inactive) | 97.1 µM (inactive) | > 100 µM (inactive) | > 100 µM (inactive) | > 100 µM (inactive) | 39.9 µM (inactive) | > 100 µM (inactive) |
| C[C@]12CCC3c4ccc(O)cc4CC[C@H]3C1CC(=O)N(N)C2=O (stereo partly drawn) | > 100 µM (inactive) | > 100 µM (inactive) | > 100 µM (inactive) |  | > 100 µM (inactive) | > 100 µM (inactive) | > 100 µM (inactive) | > 100 µM (inactive) | > 100 µM (inactive) | > 100 µM (inactive) | > 100 µM (inactive) | > 100 µM (inactive) | > 100 µM (inactive) | > 100 µM (inactive) |  | > 100 µM (inactive) | > 100 µM (inactive) | > 100 µM (inactive) | > 100 µM (inactive) | > 100 µM (inactive) |
